Source: patent publication US10696686B2, “Herbicidally active (alkynyl-phenyl)-substituted cyclic dione compounds and derivatives thereof” (Syngenta Limited, priority 2013, dated 2020)

What was measured:
Assay type in all cases: in vivo
[1] = system: Abutilon theophrasti (ABUTH); experiment: Biological Example 1B glasshouse assay, pre-emergence application; conditions: 250 g/ha, 13 days after application
Description: (§1) Seeds of a variety of test plant species were sown in standard soil ** in pots. After cultivation for one day (pre-emergence) or after 8 days cultivation (post-emergence) under controlled conditions in a glasshouse (at 24/16° C., day/night; 14 hours light; 65% humidity), the plants were sprayed with an aqueous spray solution derived from the formulation of the technical active ingredient (the test herbicide) in acetone/water (50:50) solution containing 0.5% Tween 20 (polyoxyethylene sorbitan monolaurate, CAS Reg. No. 9005-64-5). The test plants were then grown on under controlled conditions in a glasshouse (at 24/16° C., day/night; 14 hours light; 65% humidity) and watered twice daily. 13 Days after application of the test herbicide, for pre- and post-emergence, the test was evaluated visually for percentage phytotoxicity to each plant (where 100%=total damage to plant; 0%=no damage to plant). Generally, each test herbicide is only tested on 1 plant per plant species for each application rate tested and for each application timing. ** The “standard soil” in Biological Example 1 is usually a “sand” or “sandy loam” type of soil.
(§2) Dicotyledonous weeds: ABUTH=Abutilon theophrasti; AMARE=Amaranthus retroflexus. Grassy monocotyledonous weeds: SETFA=Setaria faberi; ALOMY=Alopecurus myosuroides; ECHCG=Echinochloa crus-galli; ZEAMX=Zea mays (corn, maize, e.g. volunteer corn). For Compound A16, the grassy monocotyledonous weed LOLPE (Lolium perenne) was used in the test insterad of ALOMY.

[2] = system: Echinochloa crus-galli (ECHCG); experiment: as above; conditions: 250 g/ha, 13 days after application
Description: as §1, §2

Setaria faberi (SETFA) [3] = experiment: as above; conditions: 250 g/ha, 13 days after application
Description: as §1, §2

[4] = system: Amaranthus retroflexus (AMARE); experiment: as above; conditions: 250 g/ha, 13 days after application
Description: as §1, §2

[5] = system: Alopecurus myosuroides (ALOMY); experiment: as above; conditions: 250 g/ha, 13 days after application
Description: as §1, §2

[6] = system: Zea mays (ZEAMX, corn, maize, e.g. volunteer corn); experiment: as above; conditions: 250 g/ha, 13 days after application
Description: as §1, §2

[7] = system: Abutilon theophrasti (ABUTH); experiment: Biological Example 1A glasshouse assay, post-emergence application; conditions: 312 h, 13 days after application, read-out: Percentage phytotoxicity ABUTH
Description: as §1, §2

[8] = system: Echinochloa crus-galli (ECHCG); experiment: as above; conditions: 312 h, 13 days after application, read-out: Percentage phytotoxicity ECHCG
Description: as §1, §2

Setaria faberi (SETFA) [9] = experiment: as above; conditions: for pest or weed control at 30 g/ha / pest or weed control at 250 g/ha: Setaria faberi, 312 h, 13 days after application, read-out: Percentage phytotoxicity SETFA
Description: as §1, §2

[10] = system: Amaranthus retroflexus (AMARE); experiment: as above; conditions: 312 h, 13 days after application, read-out: Percentage phytotoxicity AMARE
Description: as §1, §2

[11] = system: Alopecurus myosuroides (ALOMY); experiment: as above; conditions: for Percentage phytotoxicity ALOMY: 13 days after application
Description: as §1, §2

[12] = system: Zea mays (ZEAMX, corn, maize, e.g. volunteer corn); experiment: as above; conditions: for pest or weed control at 30 g/ha / pest or weed control at 250 g/ha: Zea mays, 312 h, 13 days after application, read-out: Percentage phytotoxicity ZEAMX
Description: as §1, §2

[13] = system: grassy (in particular warm climate grassy) monocotyledonous weeds; experiment: Post-emergence herbicidal activity, summary statements on Biological Examples 1 to 3; conditions: applied at about 250 g/ha post-emergence; Biological Examples 1 and 2
Description: as §1
Seeds of a variety of monocotyledonous and dicotyledonous test plants are sown in standard soil in pots. The plants are cultivated for one day (for pre-emergence) or for about 12 days (range=10-13 days) (for post-emergence) under controlled conditions in a glasshouse (warm climate species at 24/18° C., cool climate species at 20/16° C., both at day/night; 16 hours light; 65% humidity). An “instant formulation”, known as the “IF50”, containing 50 g/litre (i.e. 5% w/v) of the “technical” (i.e. unformulated) active ingredient is prepared by dissolving the active ingredient in a mixture of organic solvents and emulsifier, details of which are provided in the Table below. […]
The test plants are then grown on, in a glasshouse (greenhouse) under controlled conditions (at either 24/18° C. or 20/16° C. (day/night) as mentioned above; 16 hours light; 65% humidity) and are watered twice daily. Either 14 or 15 days after application of the herbicide (14 or 15 DAA) (for post-emergence), or 20 days after application of the herbicide (20 DAA) (for pre-emergence), the test plants are evaluated visually, and an assessed percentage phytotoxicity score is given for each herbicidal application on each plant species (where 100%=total damage to plant; 0%=no damage to plant). […]

[14] = applied at about 250 g/ha post-emergence

SMILES	Percentage phytotoxicity ABUTH [1]	Percentage phytotoxicity ECHCG [2]	Percentage phytotoxicity SETFA (Setaria faberi (SETFA) [3])	Percentage phytotoxicity AMARE [4]	Percentage phytotoxicity ALOMY [5]	Percentage phytotoxicity ZEAMX [6]	pest or weed control at 30 g/ha [7]	pest or weed control at 250 g/ha [7]	pest or weed control at 30 g/ha [8]	pest or weed control at 250 g/ha [8]	pest or weed control at 30 g/ha (Setaria faberi (SETFA) [9]; post-emergence)	pest or weed control at 250 g/ha (Setaria faberi (SETFA) [9]; post-emergence, 250 g/ha)	pest or weed control at 30 g/ha [10]	pest or weed control at 250 g/ha [10]	Percentage phytotoxicity ALOMY ([11]; 30 g/ha)	Percentage phytotoxicity ALOMY ([11]; 250 g/ha)	pest or weed control at 30 g/ha ([12]; post-emergence)	pest or weed control at 250 g/ha ([12]; post-emergence, 250 g/ha)	post-emergent herbicidal potency against grassy monocotyledonous weeds (in words) [13]	further results
CC#Cc1cc(F)c(C2C(=O)CCC2=O)c(OC)c1 [Compound A9]	0%	80%	80%	20%	30%	80%	0%	30%	60%	70%	70%	80%	0%	20%	0%	20%	70%	90%	potent post-emergent herbicides	
CC#Cc1cc(F)c(C2C(=O)CC(CC(C)SC)CC2=O)c(OC)c1 (stereo not shown) [Compound A12]								0%		20%		0%		0%		0%		30%		
CC#Cc1cc(F)c(C2C(=O)C(C)(C)OC(C)(C)C2=O)c(OC)c1 [Compound A10]	0%	90%	70%	0%	50%	50%	0%	0%	50%	80%	70%	90%	0%	0%	40%	80%	40%	90%	potent post-emergent herbicides	
CC#Cc1cc(F)c(C2C(=O)CC3(CCOCC3)CC2=O)c(OC)c1 [Compound A14]	0%	70%	20%	20%	40%	30%		0%		20%		70%		10%		40%		80%		post-emergent herbicidal potency on SETFA (in words) (Setaria faberi (SETFA) [9]; [14]): potent post-emergent herbicides; herbicidal potency against SETFA compared with compound B2 (in words) (Setaria faberi (SETFA) [9]; post-emergence, 250 g/ha, Biological Example 1A, more potent 'perhaps also' on SETFA): perhaps also; herbicidal potency against ALOMY compared with compound B2 (in words) ([11]; 250 g/ha, Biological Example 1A): more potent herbicide; post-emergent herbicidal potency on ZEAMX (in words) [12, 14]: potent post-emergent herbicides; herbicidal potency against ZEAMX compared with compound B2 (in words) ([12]; post-emergence, 250 g/ha, Biological Example 1A): more potent herbicide
C#Cc1cc(F)c(C2C(=O)CC3(CCOCC3)CC2=O)c(OC)c1 [Compound B2]	0%	40%	30%	40%	50%	50%		0%		30%		60%		0%		10%		40%		
